Results on eleven compounds are retold here after patent US20230012368A1 (Hoffmann-La Roche Inc., priority 2018, published 2023).

Structures can show the parent of a compound that is named as a salt. Where two headings read alike, the source gives them in different places.

As a reminder, the IC90 is the point of the concentration-response curve where the effect stands at 90%.

The test system of this test is Acinetobacter baumannii ATCC 17978. Briefly: Antimicrobial susceptibility testing: 90% growth inhibitory concentration (IC90) determination. The note with it: 90% growth inhibitory concentration, Acinetobacter baumannii ATCC17978, Iso-Sensitest broth, OD 600 nm over 16h, read-out: ATCC17978 IC90. The class given is cell-based. The gist of the method: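 Growth of the Acinetobacter baumannii strain was followed by optical density at 600 nm every 20 minutes for 16h at 35±2° C. Inoculum was ~5×10^(5) CFU/ml in Iso-Sensitest medium, with twofold compound dilutions (e.g. 50 to 0.097 μM final). The 90% inhibitory concentration was derived in log-phase growth.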

[1] abbreviates: Acinetobacter baumannii, ATCC17978, 16 h.

As to `Cc1cc(Nc2nccn3c(-c4ccc(Cl)c(F)c4F)cnc23)ccc1C(=O)NCCC1CCNCC1` [Example 193, 4-[[3-(4-chloro-2,3-difluorophenyl)imidazo[1,2-a]pyrazin-8-yl]amino]-2-methyl-N-(2-piperidin-4-ylethyl)benzamide;hydrochlo-ride], under setting [1], the 90% effect concentration (IC90) was found to be 350 nM.

Turning to `COc1ccc(-c2cnc3c(Nc4ccc(C(=O)NCCC5CCN(C)CC5)c(C)c4)nccn23)cc1` [Example 195, 4-[[3-(4-methoxyphenyl)imidazo[1,2-a]pyrazin-8-yl]amino]-2-methyl-N-[2-(1-methylpiperidin-4-yl)ethyl]benzamide;hydrochlo-ride], the IC90 was found to be 360 nM. Regarding `CCc1cc(Nc2nccn3c(-c4ccc(OC)c(F)c4F)cnc23)ccc1C(=O)NCC(O)CN` (centres unmarked) [Example 147, N-(3-amino-2-hydroxy-propyl)-4-[[3-(2,3-difluoro-4-methoxy-phenyl)imidazo[1,2-a]pyrazin-8-yl]amino]-2-ethyl-benzamide;hydrochloride], where the note is “hydrochloride”, the IC90 is 450 nM. Take `COc1ccc(-c2cnc3c(Nc4ccc(C(=O)NC[C@H](N)CNC(=O)[C@@H]5C[C@@H](O)CN5)c(C)c4)nccn23)c(F)c1F` [Example 469, (2S,4R)-N-[(2S)-2-amino-3-[[4-[[3-(2,3-difluoro-4-methoxy-phenyl)imidazo[1,2-a]pyrazin-8-yl]amino]-2-methyl-benzoyl]amino]propyl]-4-hydroxy-pyrrolidine-2-carboxamide; formic acid]: the IC90 under setting [1] was 500 nM. Take `Cc1cc(Nc2nccn3c(-c4ccc(OC(F)F)cc4)cnc23)ccc1C(=O)N(C)CCN1CCCCC1` [Example 265, 4-[[3-[4-(difluoromethoxy)phenyl]im-idazo[1,2-a]pyrazin-8-yl]amino]-N,2-dimethyl-N-(2-piperidin-1-ylethyl)benzamide]: under setting [1], the IC90 worked out at 5100 nM. Consider `COc1ccc(-c2cnc3c(Nc4ccc(C(=O)N(C)CCN)c(C)c4)nccn23)cc1` [Example 32, N-(2-aminoethyl)-4-((3-(4-methoxyphenyl)imidazo [1,2-a]pyrazin-8-yl)amino)-N,2-dimethylbenzamide], for which the IC90 under setting [1] worked out at 1700 nM. Still for that read-out and setting: with `Cc1cc(Nc2nccn3c(-c4ccc(OC(F)F)cc4)cnc23)ccc1C(=O)NCCC1CCNCC1` [Example 196, 4-[[3-[4-(difluoromethoxy)phenyl]im-idazo[1,2-a]pyrazin-8-yl]amino]-2-methyl-N-(2-piperidin-4-ylethyl)benzamide;hydrochlo-ride] the figure was 380 nM; with `COc1ccc(-c2cnc3c(Nc4ccc(C(=O)N(C)C)c(C)c4)nccn23)c(F)c1F` [Example 1, 4-((3-(2,3-difluoro-4-methoxyphenyl)imidazo[1,2-a]pyrazin-8-yl)amino)-N,N,2-trimethylbenzamide], 120 nM; with `CCc1cc(Nc2nccn3c(-c4ccc(Oc5ccc(OC)cn5)c(F)c4F)cnc23)ccc1C(=O)NCCNC(=O)CCN` [Example 448, N-[2-(3-aminopropanoylamino)ethyl]-4-[[3-[2,3-difluoro-4-[(5-methoxy-2-pyridyl)oxy]phenyl]imidazo [1,2-a]pyrazin-8-yl]amino]-2-ethyl-benzamide; formic acid], 470 nM. For the compound `CCc1cc(Nc2nccn3c(-c4ccc(OC)c(F)c4F)cnc23)ccc1C(=O)NCCCC(=O)N1CCN[C@H](CO)C1` [Example 161, 4-[[3-(2,3-difluoro-4-methoxy-phenyl)imidazo[1,2-a]pyrazin-8-yl]amino]-2-ethyl-N-[4-[(3S)-3-(hydroxymethyl)piperazin-1-yl]-4-oxo-butyl]benzamide], under setting [1], the IC90 was determined as 80 nM. On to `COc1ccc(-c2cnc3c(Nc4ccc(C(=O)N(CCN5CCNCC5)CC(F)(F)F)c(C)c4)nccn23)cc1F` [Example 172, 4-[[3-(3-fluoro-4-methoxyphenyl)imidazo[1,2-a]pyrazin-8-yl]amino]-2-methyl-N-(2-piperazin-1-ylethyl)-N-(2,2,2-trifluoroethyl)benzamide; hy-drochloride], for which the IC90 under setting [1] was 6200 nM.
